In patent US10035800B2 (AbbVie Inc., priority 2013, dated 2018):
Several values for one entry are separate records, joined by “and”; a condition that tells them apart may be missing. Equal values may be shown once. Read-outs that look alike come from different tables or passages of the source. Marks after values point to notes of the source that are not given here.

Tests used:
[1] = target: T1, BRD4 (BDI_K57-E168) (Homo sapiens, UniProt O60885); experiment: TR-FRET bromodomain binding assay, first bromodomain of BRD4; details: 100 nM probe
T1 construct: BD1: amino acids K57-E168; made in house
How it was run: (§1)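 Displacement of a fluorescent Alexa647 BET-inhibitor probe (100 nM with BDI, 30 nM with BDII) from His-tagged BRD4 bromodomains was monitored by europium TR-FRET after one hour at room temperature. Data were normalized to no-compound and 1 μM unlabelled probe controls, fitted with a four-parameter logistic, and IC50s converted to Ki.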

[2] = target: T2, BRD4 (BDII_E352-M457) (Homo sapiens, UniProt O60885); experiment: TR-FRET bromodomain binding assay, second bromodomain of BRD4; details: 30 nM probe
T2 construct: protocol; made in house
How it was run: as §1

[3] = tested on: breast cancer cell line MX-1; experiment: MX-1 cell line proliferation assay; type: cell-based; details: MX-1 cells, 3-day proliferation assay, Cell Titer Glo; read-out: Cellular proliferation: EC50
How it was run: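 EC50 comes from sigmoidal fits of Cell Titer Glo luminescence relative to DMSO controls, with assay MSR 2.1. Ten-point 3-fold dilutions (top 3 or 1 μM final) were added to MX-1 breast cancer cells after overnight adhesion. Cells were at 5000/well and proliferation ran 3 days.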

[4] = tested on: IL-6 (Interleukin-6) production; experiment: LPS (lipopolysaccharide) induced IL-6 production mouse assay; type: in vivo, mice; details: oral administration 1 h before LPS 2.5 mg/kg ip, serum 2 h after LPS, p < 0.05 vs vehicle
Method: LPS (Lipopolysaccharide) Induced IL-6 Production Mouse Assay
Compounds of the Examples listed in Table 2 were assayed for their ability to inhibit LPS (lipopolysaccharide) induced IL-6 (Interleukin-6) production in mice. Fox Chase SCID® female mice (Charles Rivers Labs, 5 per group) or CD1 female mice (5 per group) received an intraperitoneal challenge of lipopolysaccharide (2.5 mg/kg, L2630 E. coli 0111:B4) one hour after oral administration of compounds. Mice were euthanized 2 hours after lipopolysaccharide injection, blood was removed by cardiac puncture, and then the serum harvested from the blood samples was frozen at −80° C. On the day of the assay the serum samples were brought to room temperature and then diluted 1:20 in phosphate-buffered saline containing 2% bovine serum albumin. Interleukin-6 measurements were performed using a cytokine assay from Meso Scale Discovery (Gaithersburg, Md.) for mouse serum analysis according to the manufacturer's protocol and read on a SECTOR Imager 6000 (Meso Scale Discovery, Gaithersburg, Md.) instrument. Statistical analysis was performed using Prism software (version 5.0) incorporating Dunnett's one way ANOVA. The IL-6 mean and standard deviation of the group of vehicle treated animals were compared with the IL-6 mean and standard deviation of the group treated with drug. A p value <0.05 means that there is less than a 5% probability that the mean values in the two groups are equal.

[5] = tested on: OPM-2 xenograft tumors; details: SCID-beige mice
Method: Xenograft Tumor Growth Inhibition Assay
A suspension of cancer cells (5×10^6 per 0.1 mL) prepared in RPMI culture medium (Invitrogen, Carlsbad, Calif.) was diluted 1:1 with a solution of Matrigel™ (BD Biosciences, Franklin Lakes, N.J.) and inoculated subcutaneously into the right hind flank of female SCID-beige (Charles River Labs) mice. Randomization into treatment and vehicle control groups (8-10/group) occurred when the mean tumor volume reached approximately 250 mm^3. Compounds were formulated in 2.5% DMSO, 10% ethanol, 27.5% PEG 400, 60% Phosol 53 MCT. Administration of compound or vehicle was initiated on the day following randomization and continued for 21 days. Tumors were measured twice a week throughout the treatment period using a pair of calipers and tumor volumes were calculated according to the formula V=L×W^2/2 (V: volume, mm^3; L: length, mm. W: width, mm).

[6] = TR-FRET assay protocol G (compound 0.92 μM-15 pM)
[7] = TR-FRET assay protocol E (compound 9.19 μM-150 pM)
[8] = TR-FRET assay protocol B (compound 49.02 μM-15.63 nM)

Row | Compound | Ki [1, 6] [nM] | Ki [2, 6] [nM] | EC50 [3] [nM] | % inhibition of LPS induced IL-6 production ([4]; mouse strain CD1) [%] | % inhibition of LPS induced IL-6 production ([4]; mouse strain SCID) [%] | also measured
1 | Cn1cc2c3c(c(C#N)[nH]c3c1=O)CN(c1ccc(Cl)cc1)c1ccc(CS(C)(=O)=O)cc1-2 [Example 199, 4-(4-chlorophenyl)-10-methyl-7-((methylsulfonyl)methyl)-11-oxo-3,4,10,11-tetrahydro-1H-1,4,10-triazadibenzo[cd,f]azulene-2-carbonitrile] | 0.81 | 1.21 | 10.8 | 90 | – | % TGI ([5]; 1.25 mg/kg PO, QD x21): 91*** %
2 | Cn1cc2c3c(c[nH]c3c1=O)CN(C1CCC(NC(=O)OC(C)(C)C)CC1)c1ccc(CS(C)(=O)=O)cc1-2 (mixture of isomers) [Example 196] | 1.14 | 1.72 | 3.82 | 79 | – | % TGI ([5]; 2.5 mg/kg PO, QD x21): 84*** %; % TGI ([5]; 5 mg/kg PO, QD x21): 92*** %
3 | CCNC(=O)c1[nH]c2c(=O)n(C)cc3c2c1CN(c1ccc(F)cc1F)c1ccc(CS(C)(=O)=O)cc1-3 [Example 202, 4-(2,4-difluorophenyl)-N-ethyl-10-methyl-7-((methylsulfonyl)methyl)-11-oxo-3,4,10,11-tetrahydro-1H-1,4,10-triazadibenzo[cd,f]azulene-2-carboxamide] | 0.79 | 0.35 | 4.3 | 47 | – | –
4 | 4-(cyclopropylmethyl)-10-methyl-7-((methylsulfonyl)methyl)-3,4-dihydro-1H-1,4,10-triazadibenzo[cd,f]azulen-11(10H)-one [Example 6] | – | – | 2.01 | – | 64 | Ki [1, 7]: 1.08 nM; Ki [2, 7]: 1.71 nM
5 | CCOC(=O)C1c2c[nH]c3c(=O)n(C)cc(c23)-c2cc(CS(C)(=O)=O)ccc2N1CC1CC1 (centres unmarked) [Example 7, ethyl 4-(cyclopropylmethyl)-10-methyl-7-((methylsulfonyl)methyl)-11-oxo-3,4,10,11-tetrahydro-1H-1,4,10-triazadibenzo[cd,f]azulene-3-carboxylate] | – | – | 14.5 | – | 53 | Ki [1, 8]: 51.1 nM; Ki [2, 8]: 26.7 nM
6 | Cn1cc2c3c(c[nH]c3c1=O)CN(c1ccc(F)cc1)c1ccc(S(C)(=O)=O)cc1-2 [Example 8, 4-(4-fluorophenyl)-10-methyl-7-(methylsulfonyl)-3,4-dihydro-1H-1,4,10-triazadibenzo[cd,f]azulen-11(10H)-one] | – | – | 5.68 | – | 53 | Ki [1, 7]: 0.646 nM; Ki [2, 7]: 3.77 nM
7 | CCOC(=O)N1Cc2c[nH]c3c(=O)n(C)cc(c23)-c2cc(F)cc(F)c21 [Example 173, ethyl 5,7-difluoro-10-methyl-11-oxo-10,11-dihydro-1H-1,4,10-triazadibenzo[cd,f]azulene-4(3H)-carboxylate] | 6.72 | 3.14 | 19.9 | 87 | – | % TGI ([5]; 1.25 mg/kg PO, QD x21): 49** %
8 | Cn1cc2c3c(c[nH]c3c1=O)CN(c1ccc(F)cc1F)c1ccc(CS(C)(=O)=O)cc1-2 [Example 12, 4-(2,4-difluorophenyl)-10-methyl-7-((methylsulfonyl)methyl)-3,4-dihydro-1H-1,4,10-triazadibenzo[cd,f]azulen-11(10H)-one] | 1.34 | 0.472 | 4 | – | 90 | % TGI ([5]; 1.5 mg/kg IP, QD x21): 82** % and 91*** %; % TGI ([5]; 1.5 mg/kg PO, QD x21): 87*** %; % TGI ([5]; 3 mg/kg IP, QD x21): 89** %; % TGI ([5]; 3 mg/kg PO, 3 on 4 off x3 weeks): 81*** %; % TGI ([5]; 3 mg/kg PO, QD x11): 72*** %; % TGI ([5]; 3 mg/kg PO, QD x21): 94*** %
9 | CN1CCN(C(=O)c2[nH]c3c(=O)n(C)cc4c3c2CN(c2ccc(Cl)cc2)c2ccc(CS(C)(=O)=O)cc2-4)CC1 [Example 60, 4-(4-chlorophenyl)-10-methyl-2-(4-methylpiperazine-1-carbonyl)-7-((methylsulfonyl)methyl)-3,4-dihydro-1H-1,4,10-triazadibenzo[cd,f]azulen-11(10H)-one] | 2.55 | 33.1 | 115 | 44 | – | –
10 | Cn1cc2c3c(c[nH]c3c1=O)CN(C1CCOCC1)c1ccc(CS(C)(=O)=O)cc1-2 [Example 151, 10-methyl-7-((methylsulfonyl)methyl)-4-(tetrahydro-2H-pyran-4-yl)-3,4-dihydro-1H-1,4,10-triazadibenzo[cd,f]azulen-11(10H)-one] | 1.14 | 2.3 | 4.26 | 57 | – | –

Stronger by EC50 [3], values ahead:

Row | Ki [1, 6] [nM] | Ki [2, 6] [nM] | EC50 [3] [nM] | Compound | % inhibition of LPS induced IL-6 production ([4]; mouse strain CD1) [%] | % inhibition of LPS induced IL-6 production ([4]; mouse strain SCID) [%] | also measured
11 | 0.92 | 2.09 | 1.33 | Cn1cc2c3c(c[nH]c3c1=O)CN(c1ccccn1)c1ccc(CS(C)(=O)=O)cc1-2 [Example 207, 10-methyl-7-((methylsulfonyl)methyl)-4-(pyridin-2-yl)-3,4-dihydro-1H-1,4,10-triazadibenzo[cd,f]azulen-11(10H)-one] | 65 | – | % TGI ([5]; 0.25 mg/kg PO, QD x21): 60*** %; % TGI ([5]; 0.5 mg/kg PO, QD x21): 93*** % and 94*** %; % TGI ([5]; 1 mg/kg PO, QD x21): 97*** %
12 | 0.453 | 1.11 | 0.721 | Cn1cc2c3c(c[nH]c3c1=O)CN(c1ccc(F)cc1)c1ccc(CS(C)(=O)=O)cc1-2 [Example 9, 4-(4-fluorophenyl)-10-methyl-7-((methylsulfonyl)methyl)-3,4-dihydro-1H-1,4,10-triazadibenzo[cd,f]azulen-11(10H)-one] | – | 79 | % TGI ([5]; 1.85 mg/kg PO, QD x21): 87*** %
13 | 0.65 | 0.42 | 1.4 | Cn1cc2c3c(c[nH]c3c1=O)CN(c1ncc(F)cc1F)c1ccc(CS(C)(=O)=O)cc1-2 [Example 213, 4-(3,5-difluoropyridin-2-yl)-10-methyl-7-((methylsulfonyl)methyl)-3,4-dihydro-1H-1,4,10-triazadibenzo[cd,f]azulen-11(10H)-one] | – | – | % TGI ([5]; 0.5 mg/kg PO, QD x21): 82*** %; % TGI ([5]; 1 mg/kg PO, QD x21): 96*** % and 95*** %
14 | 1.65 | 1.08 | 1.25 | Cn1cc2c3c(c[nH]c3c1=O)CN(c1ccc(C#N)cc1)c1ccc(CS(C)(=O)=O)cc1-2 [Example 192, 4-(10-methyl-7-((methylsulfonyl)methyl)-11-oxo-10,11-dihydro-1H-1,4,10-triazadibenzo[cd,f]azulen-4(3H)-yl)benzonitrile] | 73 | – | –
15 | – | – | 1.03 | 10-methyl-7-((methylsulfonyl)methyl)-4-((tetrahydro-2H-pyran-3-yl)methyl)-3,4-dihydro-1H-1,4,10-triazadibenzo[cd,f]azulen-11(10H)-one [Example 29] | – | 76 | Ki [1, 7]: 6.95 nM; Ki [2, 7]: 2.74 nM
16 | 1.78 | 0.82 | 1.93 | CC(C)CN1Cc2c[nH]c3c(=O)n(C)cc(c23)-c2cc(CS(C)(=O)=O)ccc21 [Example 149, 4-isobutyl-10-methyl-7-((methylsulfonyl)methyl)-3,4-dihydro-1H-1,4,10-triazadibenzo[cd,f]azulen-11(10H)-one] | 86 | – | –
17 | 1.33 | 0.38 | 1.47 | N-ethyl-4-(4-fluorophenyl)-10-methyl-7-((methylsulfonyl)methyl)-11-oxo-3,4,10,11-tetrahydro-1H-1,4,10-triazadibenzo[cd,f]azulene-2-carboxamide [Example 194] | 53 | – | –
